The text below walks through data of patent publication US20230255975A1, “METHODS FOR TREATING CANCER WITH COMBINATION THERAPIES” (Celgene Corporation, priority 2020, published 2023).

Assay [1] has as its system U266 cell line. Briefly: Proliferation assay. The assay is classed as cell-based. The note with it: Homo sapiens, U-266, 1q amp 3×, BRD4/BET inhibition, read-out: IC50. As for the experimental part: (§1) Proliferation and viability assays: Cell growth curves were determined by monitoring the viability of cells with Trypan blue exclusion on a Vi-Cell-XR (Becton Dickinson, Franklin Lakes, N.J., USA). Proliferation assays were performed in triplicate at least three times (n=3) using (3H)-thymidine incorporation. All data were plotted and analyzed using GraphPad Prism 7 (GraphPad Software, La Jolla, Calif., USA) software, represented as the mean with an error determined as ±s.d.

In assay [2] the test system is DF15/PR cell line. Put plainly: Proliferation assay. Type of assay: cell-based. The note with it: 1q amp 3×, BRD4/BET inhibition. As for the experimental part:
as §1

Assay [3] relates to KMS11 cell line. Briefly: Proliferation assay. Type of assay: cell-based. The note with it: Homo sapiens, KMS-11, 1q amp 6-8×, BRD4/BET inhibition. As for the experimental part:
as §1

Assay [4] has as its system MM1.S cell line. Briefly: Proliferation assay. Type of assay: cell-based. The note with it: Homo sapiens, 1q amp 3×, BRD4/BET inhibition. As for the experimental part: as §1
Assay [5] has as its system CKS1B and E2F2 in H929 cell line. Briefly: Immunoblot of CKS1B and E2F2 after BET inhibitors. The note with it: FIG. 10B. Type of assay: cell-based. The text has this:
(§2) Effects of BRD4 inhibitors on CKS1B and E2F2 and their target genes. CKS1B and E2F2 have been enlisted as super-enhancer (SE) associated genes in MM (Loven, J., et al., Cell, 2013, 153(2): p. 320-34). In order to pharmacologically target CKS1B and E2F2, the BET inhibitors JQ1 and Compound A were utilized in MDMS8-like and H929 cell lines. […] BET inhibitors also promoted a decrease in Cereblon substrates, Ikaros, Aiolos and c-Myc levels. Further, an increase in the levels of P27 was observed, which is a negative regulator of CKS1B signaling. Immunofluorescence staining was performed to analyze the localization and expression of CKS1B and E2F2 in response to JQ1 and confirmed the decrease in their nuclear expression in MDMS8-like cells (data not shown). Since BET inhibitors mediate their changes mainly at transcript levels, transcript levels of CKS1B and E2F2 were analyzed in response to BET inhibitors. In both MDMS8-like and H929 cell lines, BET inhibitors promoted a decrease in transcript levels of CKS1B and E2F2 (FIG. 10C, FIG. 10D, FIG. 10E, and FIG. 10F). […] To ascertain the SE mediated regulation of CKS1B and E2F2, CDK7 inhibitors targeting SE-associated complexes in MM cell lines were utilized.
On the technique in general: Immunoblotting shows a protein as a band on a membrane.

Assay [6] has as its system CKS1B and E2F2 in MDMS8-like (DF15PR) cell line. Briefly: Immunoblot of CKS1B and E2F2 after BET inhibitors. Type of assay: cell-based. The conditions noted are these: FIG. 10A.
Excerpt: as §2

The test system of assay [7] is H929 cell line. Briefly: Proliferation assay. The assay is classed as cell-based. The conditions noted are these: Homo sapiens, NCI-H929, 1q amp 3-4×, BRD4/BET inhibition, read-out: IC50. As for the experimental part: as §1
(§3) Proliferation and viability assay. Cell growth curves were determined by monitoring the viability of cells with Trypan blue exclusion on a Vi-Cell-XR (Becton Dickinson, Franklin Lakes, N.J., USA). Cell lines were plated in triplicate in 96-well round-bottom plates with the indicated drug concentrations or knockdown cells. Proliferation assays were performed in triplicate at least three times (n=3) using either the WST-1 tetrazolium salt (Roche Applied Science) reagent used according to the manufacturer's specifications or by (3H)-thymidine incorporation as previously described (Bjorklund et al., Blood Cancer Journal 5, e354, 2015). All data were plotted and analyzed using GraphPad Prism 7 (GraphPad Software, La Jolla, Calif., USA) software, represented as the mean with an error determined as ±s.d.

In assay [8] the test system is Mc-CAR cell line. Put plainly: Proliferation assay. The assay is classed as cell-based. The conditions noted are these: McCAR; 1q amp normal; BRD4/BET inhibition; read-out: IC50. As for the experimental part:
as §1, §3

Assay [9] deals with AMO1 cells. Briefly: Apoptosis by Annexin V and Topro staining. The assay is classed as cell-based. The conditions noted are these: AMO-1 cells. As for the experimental part: (§4) Flow cytometry: Annexin-V Alexa Fluor 488-conjugated antibody (Thermo Scientific, Waltham, Mass., USA) and To-Pro-3 (Thermo Scientific, Waltham, Mass., USA) were used according to the manufacturer's protocol and processed using Flow Jo software for at least three independent experiments. For cell cycle analysis, cells were stained with Propidium Iodide (PI) staining kit (Abcam, Cambridge, Mass., USA) and analysis was performed on Flow Jo V10 software. Staining of mitotic marker pHH3-Ser^10 was also performed by pHH3-Ser^10 and PI dual staining.
(§5) The PLK1 inhibitor BI2536 and Compound 5 were tested for their activity as individual agents and in combination in AMO1 parental and AMO1-PR cell lines. […] Changes in apoptosis were analyzed using the single agent treatments and their combination using Annexin V and Topro staining. […] Changes in Ikaros and pro-survival signaling in these cell lines was analyzed in response to BI2536 and Compound 5 after 24 and 72 hours of treatment (FIG. 5K).

Assay [10] concerns AMO1-PR cells. Briefly: Apoptosis by Annexin V and Topro staining. Type of assay: cell-based. As for the experimental part:
as §4, §5

Assay [11] has as its system K12PE cell line. Put plainly: Proliferation assay. Type of assay: cell-based. The note with it: for Synergy analysis (Calcusyn) of combination with JQ1 on proliferation: K12PE cells, in combination with JQ1. As for the experimental part:
as §1
(§6) Proliferation and viability assay. Cell growth curves were determined by monitoring the viability of cells with Trypan blue exclusion on a Vi-Cell-XR (Becton Dickinson, Franklin Lakes, N.J., USA). Cell lines were plated in triplicate in 96-well round-bottom plates with the indicated drug concentrations or knockdown cells. […] All data were plotted and analyzed using GraphPad Prism 7 (GraphPad Software, La Jolla, Calif., USA) software, represented as the mean with an error determined as ±s.d.

The test system of assay [12] is several MM cell lines. Briefly: Proliferation of MM cell lines with CDK7 inhibitor. Type of assay: cell-based. The note with it: data not shown. As for the experimental part:
as §1
Effects of BRD4 inhibitors on CKS1B and E2F2 and their target genes. CKS1B and E2F2 have been enlisted as super-enhancer (SE) associated genes in MM (Loven, J., et al., Cell, 2013, 153(2): p. 320-34). In order to pharmacologically target CKS1B and E2F2, the BET inhibitors JQ1 and Compound A were utilized in MDMS8-like and H929 cell lines. […] BET inhibitors also promoted a decrease in Cereblon substrates, Ikaros, Aiolos and c-Myc levels. Further, an increase in the levels of P27 was observed, which is a negative regulator of CKS1B signaling. Immunofluorescence staining was performed to analyze the localization and expression of CKS1B and E2F2 in response to JQ1 and confirmed the decrease in their nuclear expression in MDMS8-like cells (data not shown). Since BET inhibitors mediate their changes mainly at transcript levels, transcript levels of CKS1B and E2F2 were analyzed in response to BET inhibitors. […]

Assay [13] has as its system AMO1-PR (pomalidomide resistant) cell line. Briefly: Proliferation assay. Type of assay: cell-based. The conditions noted are these: for Synergy with trametinib on proliferation: in combination with trametinib. As for the experimental part:
as §1, §6

For assay [14], the system named is K12PE-PR cell line. Briefly: Proliferation assay. Type of assay: cell-based. The note with it: Pom resistant K12PE-PR; in combination with JQ1. As for the experimental part:
as §1, §6

Assay [15] relates to AMO1 cell line. Briefly: Proliferation assay. Type of assay: cell-based. The conditions noted are these: AMO1; for Synergy with trametinib on proliferation: in combination with trametinib. As for the experimental part: as §1, §6
In assay [16] the test system is AMO1 NEK2 shRNA (NEK2 knocked-down) cells. Put plainly: Proliferation assay in NEK2 knocked-down cells. Type of assay: cell-based. As for the experimental part:
as §3
(§7) To further confirm the synergistic effect, shRNA knockdown was combined with either Compound 5 or Compound 6 treatment. Expression of control and NEK2 shRNA in AMO1 cell lines was induced, followed by exposure of the cells to increasing concentrations of Compound 5 and Compound 6. The results were measured through a proliferation assay.

Assay [17] concerns AMO1 control shRNA cells. Briefly: Proliferation assay in control shRNA cells. The conditions noted are these: Homo sapiens, AMO1, read-out: IC50, proliferation. The assay is classed as cell-based. As for the experimental part:
as §3, §7

Assay [18] has as its system acute myeloid leukemia (AML). The note with it: administered alone; cited from earlier work.

Turning to `Cn1cc(-c2cc(S(C)(=O)=O)ccc2OCC2CC2)c2ccccc2c1=O` [Compound A, 4-[2-(cyclopropylmethoxy)-5-(methanesulfonyl)phenyl]-2-methylisoquinolin-1(2H)-one], the IC50 in assay [1] turned out to be 33.9 nM; in assay [2] it was 35.9 nM; in assay [3], 40.3 nM; in assay [4], 28.2 nM; in [7], 54.1 nM; in [8], 93.4 nM. In addition, the “protein levels of CKS1B and E2F2” value was “dose and time dependent decrease” in assay [5]; “dose and time dependent decrease” in assay [6].
As to `CC[C@@H]1C(=O)N(C)c2cnc(Nc3ccc(C(=O)NC4CCN(C)CC4)cc3OC)nc2N1C1CCCC1` [BI2536, (R)-4-((8-cyclopentyl-7-ethyl-5-methyl-6-oxo-5,6,7,8-tetrahydropteridin-2-yl)amino)-3-methoxy-N-(1-methylpiperidin-4-yl)benzamide], the late apoptosis is recorded as 4.25% in assay [9] (vehicle 2.24%) and 7.55% in assay [10] (vehicle 2.77%). In addition, the early apoptosis is listed as 10.9% in [9] (vehicle 2.69%) and 23.2% in [10] (vehicle 3.82%). The “Activity in biallelic P53 cell line compared to P53-wild type cells” value in [11] (K12PE vs AMO1, FIG. 7B) is “higher activity”.
`CN(C)C/C=C/C(=O)Nc1ccc(C(=O)Nc2cccc(Nc3ncc(Cl)c(-c4c[nH]c5ccccc45)n3)c2)cc1` [THZ1]: the proliferation result in assay [12] is reported as “potent decrease in proliferation”.
For `Nc1cccc2c1CN(C1CCC(=O)NC1=O)C2=O` (centres unmarked) [Compound 2, 3-(4-amino-1-oxo-1,3 dihydro-isoindol-2-yl)-piperidine-2,6-dione], the “Synergy with trametinib on proliferation” value in assay [13] and in [15] was “strong synergy” throughout. In addition, the “Synergy analysis (Calcusyn) of combination with JQ1 on proliferation” value in assay [11] is listed as “synergistic”. In addition, in assay [14], the “Synergy of combination with JQ1 on proliferation” value is recorded as “synergistically decreased proliferation”.
With `Cc1sc2c(c1C)C(c1ccc(Cl)cc1)=N[C@@H](CC(=O)OC(C)(C)C)c1nnc(C)n1-2` [JQ1, (S)-tert-butyl 2-(4-(4-chlorophenyl)-2,3,9-trimethyl-6H-thieno[3,2-f][1,2,4]triazolo[4,3-a][1,4]diazepin-6-yl)acetate], the IC50 in assay [1] was found to be 14.8 nM; in assay [2] it was 37.8 nM; in assay [3], 36.2 nM; in [4] it was 15.2 nM; in [7] it was 51.7 nM; in assay [8], 83.5 nM. Further, the “protein levels of CKS1B and E2F2” value in assay [5] is “dose and time dependent decrease”; in assay [6], “dose and time dependent decrease”.
As to `N#Cc1ccc(N2CCN(Cc3ccc(COc4cccc5c4CN([C@H]4CCC(=O)NC4=O)C5=O)cc3)CC2)c(F)c1` [Compound 6, (S)-4-(4-(4-(((2-(2,6-dioxopiperidin-3-yl)-1-oxoisoindolin-4-yl)oxy)methyl)benzyl)piperazin-1-yl)-3-fluorobenzonitrile], the “Synergy (Calcusyn) with NEK2 inhibitors (JH295 and rac-CCT 250863) on proliferation” value in [13] (NEK2 inhibitor 0.016-10 μM) and in assay [15] (NEK2 inhibitor 0.016-10 μM) was “strong synergy” throughout. Moreover, the “Combination analysis (Calcusyn) with YM155 on proliferation” value in assay [13] (in combination with YM155) and in assay [15] (in combination with YM155) was “synergistic activity” in each case. Besides, the “Synergy with trametinib on proliferation” value in [13] and in assay [15] was “strong synergy” each time. Further, the “Synergy analysis (Calcusyn) of combination with JQ1 on proliferation” value in [11] is reported as “synergistic”. The “Synergy of combination with JQ1 on proliferation” value in assay [14] is listed as “synergistically decreased proliferation”. Moreover, the IC50 in assay [16] (Homo sapiens, NEK2 knocked-down AMO1 cells) came to 2.89 nM; in assay [17], 29.6 nM. In addition, the “Increase of activity by NEK2 knockdown in comparison to control shRNA cell line” value in [16] (IC50 control cells vs NEK2 knocked-down cells) is 10 fold.
Consider “CT-011: anti-PD-1 antibody, a humanized antibody”, for which, in assay [18], the “response in treating acute myeloid leukemia (AML) at relapse” value is recorded as “failed to show response”.
